Read-outs that look alike come from different tables or passages of the source.
Assays:
ICR mice = experiment: Sleep of mice at subthreshold hypnotic dosage of sodium pentobarbital; assay type: in vivo, mouse; conditions: Diazepam 1 mg/kg; vs blank control
Protocol: After adaptive feeding of mice, 50 qualified animals were selected according to their body weights and divided into 5 groups by Excel complete randomization: a blank control group, a positive control group (Diazepam), and high-, medium- and low-dosage groups of test product, with 10 animals in each group. Animals in each group should be administrated with drug solutions and vehicles. After 1 h of administration, the animals in each group were intraperitoneally injected with a maximum subthreshold dosage of sodium pentobarbital (firstly, a pre-experiment was conducted to determine a maximum subthreshold hypnotic dosage of sodium pentobarbital).

male SD rats, TBI model = experiment: Acute traumatic brain injury (TBI) rat model; assay type: in vivo; conditions: 80 mpk once a day, 7 days; vs solvent control (P<0.05)
Protocol: • Experimental and analytical method: male SD rats were used in this experiment to establish a TBI rat model, which was randomly divided into: a solvent control group (8 rats), a test product Embodiment 13B (80 mpk, 10 rats), and a test product Embodiment 26 (80 mpk, 9 rats). After TBI surgery, drugs were administered by gavage once a day for 7 consecutive days.

[1] = test system: OCI-LY3 (human diffuse large B-cell lymphoma cells); experiment: Cell proliferation assay, OCI-LY3; assay type: cell-based; conditions: for IC50: Homo sapiens, OCI-Ly3, 72 h
Protocol: (§1) • Experimental and analytical method: cells were inoculated into a 96-well cell culture plate with a lid at a maximum concentration of 10 μM for a test compound, and diluted in three folds to a series of test concentrations, and cells were incubated at 37° C., 5% CO2 for 72 h. The concentration of DMSO was 0.5%, 100 μl of medium was taken from each well. 100 μl of reagent (Celltitute Glo Assay Kit) was added to each well, and a flat plate was shaken on a plate shaker (protected from light) for 2 min. A culture plate was incubated (protected from light) at room temperature for 30 min. Chemiluminescence values were recorded by a multi-plate plate reader, and the experimental results were as follows:
(§2) U937 (histiocytic lymphoma cells), OCI-LY3 (human diffuse large B-cell lymphoma cells), U2932 (human diffuse large B-cell lymphoma cells), and HT cells (human mixed lymphoma cells) were analyzed in the table for experimental analysis of cell proliferation.

[2] = test system: U2932 (human diffuse large B-cell lymphoma cells); experiment: Cell proliferation assay, U2932; assay type: cell-based; conditions: U2932, 72 h
Protocol: as §1, §2

[3] = test system: human SHSY5Y neural tumor cells; experiment: H2O2-induced oxidative damage of SHSY5Y cells (MTT); assay type: cell-based; conditions: 1 μM, pre-protected 24 h, 250 μM H2O2 24 h
hippocampal neurons = experiment: L-cysteine-induced neuronal excitotoxicity; assay type: cell-based, SD rats; conditions: compound 1 μM, 24 h before inducer
Protocol: Experimental and analytical method: before the experiment, a 24-well cell culture plate was pretreated with Poly-D-lysine and placed in a cell incubator at 37° C. and 5% CO2 overnight. SD rats, 18 days pregnant, were ordered, brains of fetal rats (E18-19) were dissected, and hippocampal neurons in the brains were subjected to primary culture in a neuronal medium using a 24-well plate, and then cultured by a serum-free medium. The hippocampal neurons were cultured in a cell incubator at 37° C., 5% CO2 for 19 days (DIV19), then added with a compound to be tested (a final concentration of 1 μM) and a positive control AP5 [(2R)-amino-5-phosphonopentanoic acid(phosphonatopentanoate)] (a final concentration of 100 μM), cultured for 24 h, and then added with L-Cystine (400 μM) and NaHCO3 (10 mM). After 18 h, Hoechst3342 (2.5 μg/ml) was added for cell staining. The cells were placed in the incubator and cultured for 15 min, and photographed using the high-content fluorescence microscope, wherein 6 random non-overlapping fields were photographed for each duplicate well, and the total number of neurons and the number of dead neurons were counted with software Image J. The obtained data was used to determine whether there was a difference between a drug treatment group and a control group.
Compound treatment: 32 small molecule compounds in Embodiment 1 to Embodiment 19A were diluted with DMSO to a 1 mM mother solution; and 1 μL of mother solution was added to 1 ml of culture solution per well in a 24-well plate to a final concentration of 1 μM, wherein a positive control compound was […] of AP5 (100 mM mother solution), and a negative control was 1 μl of DMSO.

[4] = test system: U937 (histiocytic lymphoma cells); experiment: Cell proliferation assay, U937; assay type: cell-based; conditions: Homo sapiens, U-937, 72 h
Protocol: as §1, §2

[5] = test system: primary cultured neurons in rats (cerebral cortex); experiment: Oxygen glucose deprivation (OGD) injury of primary cultured rat neurons; assay type: cell-based
Description: Experimental and analytical method: rats, 15 days pregnant, were ordered, brains of fetal rats (E15-16) were dissected, and neurons in the cerebral cortex were subjected to primary culture in a neuronal medium for 14 days (DIV 14) using 48-well plates, followed by an OGD experiment. During the OGD experiment, a neuronal culture solution was replaced by a glucose- and oxygen-free culture solution (95% N2/5% CO2 balance), and the neurons were subjected to OGD treatment in an OGD chamber. Then, the oxygen- and glucose-free culture medium was replaced by a normal neuronal culture solution, which was then cultured in a 95% Air/5% CO2 incubator for 24 h for neuronal activity analysis. By staining with Hoechst 33342 and Propidium iodide, a high-content fluorescence microscope was used for photographing, wherein 20 random non-overlapping visual fields were photographed per duplicate well, and the total number of neurons and the number of dead neurons were counted by software (Thermo Scientific™, HCS Studio Cell Analysis Software). […]

[6] = test system: Raji-Luc hematologic tumor cells in NOD-Scid immunodeficient mice; experiment: NOD-Scid mice inoculated with hematologic tumor cells Raji-Luc; conditions: 100 mpk by gavage once a day
[7] = test system: HT cells (human mixed lymphoma cells); experiment: Cell proliferation assay, HT; assay type: cell-based
Protocol: as §1, §2

[8] = test system: Lepr gene mutant (DB) mice; experiment: Blood glucose of DB mice; assay type: in vivo, mouse; conditions: 80 mpk by gavage once a day, from 8 to 20 weeks of age
Description: • Experimental and analytical method: leptin receptor gene (OB-R) was also known as diabetes gene (db), leptin receptor (Lepr) is closely related to obesity, hypertension, diabetes, lipid metabolism disorders, etc. The courses of these diseases are greatly influenced by the genetic background. Topical insulin can not control the increase in blood glucose and gluconeogenesis levels in the liver. Gene editing technologies and embryo injection technologies were used to construct Lepr gene mutant mice. […] The blood glucose in each mouse of this strain began to rise sharply at 8 weeks of age, reaching 30 mmol/L, while the blood glucose of the normal background was only about 6 mmol/L. We started drug delivery from 8 weeks of age. Test small molecules were Embodiment 28, Embodiment 29 and Embodiment 30, all of which were at a dosage of 80 mpk, and delivered by gavage once a day.

For `CN1C(=O)CN=C(c2ccccc2)c2cc(Cl)ccc21` [Diazepam, reference compound], the sleep latency (ICR mice) was “significantly shortened” and the sleep time (ICR mice) was “significantly prolonged”.
In the case of `C[C@H]1CC[C@@]2(OC1)O[C@H]1C[C@H]3[C@@H]4CC[C@@H]5CC(NC(=O)CC(=O)N6CCN(C7CCN(C)CC7)CC6)CC[C@]5(C)C4CC[C@]3(C)[C@H]1[C@@H]2C` (stereo partly drawn) [Embodiment 26], the “early brain apoptosis rates” value (male SD rats, TBI model) is reported as “significantly lower” and the total apoptosis rates (male SD rats, TBI model) is reported as “significantly lower”.
`C[C@H]1CC[C@@]2(OC1)O[C@H]1C[C@H]3[C@@H]4CC[C@@H]5CC(NC(=O)CCN6CCN(CCN(C)C)CC6)CC[C@]5(C)[C@H]4CC[C@]3(C)[C@H]1[C@@H]2C` (stereo partly drawn) [Embodiment 13] was tested, and the IC50 [1] was 4.4 µM, the IC50 [2] was 1.19 µM and the “protection of H2O2-induced neural tumor cell damages” value [3] was “significantly protected”. The “protective effects on L-Cystine (400 μM)-induced neuronal excitotoxicity” value (hippocampal neurons) was “protective effects”, the IC50 ([4]; low sugar, read-out: U937 (IC50, uM) Low sugar) was 2.28 µM and the IC50 ([4]; normal sugar, read-out: U937 (IC50, uM) Normal sugar) was 4.04 µM.
`O=C1NCCc2c(OCCCCN3CCCCC3)cccc21` [DPQ] was tested, and the “protective effect on neuronal damages” value [5] was “significant protective effect” and the “proportion of dead cells” value ([5]; without OGD 10.32%, DMSO negative control 52.31%) was 22.22%.
With `C[C@H]1CC[C@@]2(OC1)O[C@H]1C[C@H]3[C@@H]4CC[C@@H]5CC(NC(=O)CC(=O)N6CCCN(CCN(C)C)CC6)CC[C@]5(C)C4CC[C@]3(C)[C@H]1[C@@H]2C` (stereo partly drawn) [Embodiment 39] the “tumor killing effect (in-vivo fluorescence intensity)” value [6] was “relatively good tumor killing effects”.
In the case of `C[C@H]1CC[C@@]2(OC1)O[C@H]1C[C@H]3[C@@H]4CC[C@@H]5C[C@@H](NC(=O)CC(=O)N6CCN(CCN(C)C)CC6)CC[C@]5(C)C4CC[C@]3(C)[C@H]1[C@@H]2C` (stereo partly drawn) [Embodiment 13A], the IC50 [1] is reported as 1.78 µM, the “inhibitory effect on the proliferation of OCI-LY3 cell line (comparison in words)” value ([1]; among compounds of Table 13) is reported as “best inhibitory effect” and the IC50 [2] is reported as 0.43 µM. For the same compound, the IC50 ([7]; Homo sapiens, HT, 72 h) was 1.51 µM and the “inhibitory effect on the proliferation of HT cells (comparison in words)” value ([7]; among compounds of Table 13) was “best inhibitory effect”.
For `COC(=O)N1CCN(C(=O)CC(=O)NC2CC[C@]3(C)C4CC[C@]5(C)[C@@H]6[C@H](C[C@H]5[C@@H]4CC[C@@H]3C2)O[C@]2(CC[C@H](C)CO2)[C@H]6C)CC1` (stereo partly drawn) [Embodiment 28], the blood glucose [8] was “certain blood glucose-reducing effects”.
With `C[C@H]1CC[C@@]2(OC1)O[C@H]1C[C@H]3[C@@H]4CC[C@@H]5CC(NC(=O)C6CCN(C)CC6)CC[C@]5(C)[C@H]4CC[C@]3(C)[C@H]1[C@@H]2C` (stereo partly drawn) [Embodiment 2] the “protection of H2O2-induced neural tumor cell damages” value [3] was “significantly protected” and the “protective effects on L-Cystine (400 μM)-induced neuronal excitotoxicity” value (hippocampal neurons) was “protective effects”.
In the case of `C[C@H]1CC[C@@]2(OC1)O[C@H]1C[C@H]3[C@@H]4CC[C@@H]5CC(NC(=O)CC(=O)N6CCC(N7CCN(CC#N)CC7)CC6)CC[C@]5(C)C4CC[C@]3(C)[C@H]1[C@@H]2C` (stereo partly drawn) [Embodiment 30], the blood glucose [8] is reported as “best blood glucose-reducing effect and could reach the level of normal background mice”.
For `C[C@H]1CC[C@@]2(OC1)O[C@H]1C[C@H]3[C@@H]4CC[C@@H]5CC(NC(=O)CC(=O)N6CCN(CCn7ccnc7)CC6)CC[C@]5(C)C4CC[C@]3(C)[C@H]1[C@@H]2C` (stereo partly drawn) [Embodiment 40], the “tumor killing effect (in-vivo fluorescence intensity)” value [6] was “relatively good tumor killing effects”.
`CCN1CCC(N2CCN(C(=O)CC(=O)NC3CC[C@]4(C)C5CC[C@]6(C)[C@@H]7[C@H](C[C@H]6[C@@H]5CC[C@@H]4C3)O[C@]3(CC[C@H](C)CO3)[C@H]7C)CC2)CC1` (stereo partly drawn) [Embodiment 29] was tested, and the blood glucose [8] was “certain blood glucose-reducing effects”.
